Results taken from ChEMBL document CHEMBL2380233, “Addition of artificial salt bridge by Ile646Lys mutation in gp41 coiled-coil domain regulates 6-helical bundle formation” (Bioorg Med Chem Lett, 2013).

Columns and labels:
[1] = test system: Human immunodeficiency virus 1; assay: Antiviral activity against HIV1 SF162 infected in HEK293T cells by luciferase reporter gene assay; assay type: functional, cell-based; conditions: Human immunodeficiency virus 1, SF162 ISOLATE, HEK-293T
[2] = test system: Human immunodeficiency virus 1; assay: Antiviral activity against HIV1 JRFL infected in HEK293T cells by luciferase reporter gene assay; assay type: functional, organism-based; conditions: Human immunodeficiency virus 1, JRFL, HEK-293T
[3] = test system: Human immunodeficiency virus 1; assay: Antiviral activity against HIV1 CNE3 infected in HEK293T cells by luciferase reporter gene assay; assay type: functional, organism-based; conditions: Human immunodeficiency virus 1, CNE3, HEK-293T
[4] = test system: Human immunodeficiency virus 1; assay: Antiviral activity against HIV1 HXB2 infected in HEK293T cells by luciferase reporter gene assay; assay type: functional, organism-based; conditions: Human immunodeficiency virus 1, HXB2, HEK-293T

SMILES	IC50 [1]	IC50 [2]	IC50 [3]	IC50 [4]
CC[C@H](C)[C@H](NC(=O)[C@H](CCC(=O)O)NC(=O)[C@H](CCCNC(=N)N)NC(=O)[C@H](CC(=O)O)NC(=O)[C@H](Cc1c[nH]c2ccccc12)NC(=O)[C@H](CCC(=O)O)NC(=O)[C@H](CCSC)NC(=O)[C@H](Cc1c[nH]c2ccccc12)NC(C)=O)C(=O)N[C@@H](CC(N)=O)C(=O)N[C@@H](CC(N)=O)C(=O)N[C@@H](Cc1ccc(O)cc1)C(=O)N[C@H](C(=O)N[C@@H](CO)C(=O)N[C@@H](CC(C)C)C(=O)N[C@H](C(=O)N[C@@H](Cc1cnc[nH]1)C(=O)N[C@@H](CO)C(=O)N[C@@H](CC(C)C)C(=O)N[C@@H](CCC(=O)O)C(=O)N[C@@H](CCC(=O)O)C(=O)N[C@@H](CCC(=O)O)C(=O)N[C@@H](CO)C(=O)N[C@@H](CCC(N)=O)C(=O)N[C@@H](CC(N)=O)C(=O)N[C@@H](CCC(N)=O)C(=O)N[C@@H](CCC(N)=O)C(=O)N[C@@H](CCC(=O)O)C(=O)N[C@@H](CCCCN)C(=O)N[C@@H](CC(N)=O)C(=O)N[C@@H](CCC(=O)O)C(=O)N[C@@H](CCC(N)=O)C(=O)N[C@@H](CCC(=O)O)C(=O)N[C@@H](CC(C)C)C(=O)N[C@@H](CC(C)C)C(N)=O)[C@@H](C)CC)[C@@H](C)O	1.43 µM	1.19 µM	0.47 µM	1.31 µM
CC[C@H](C)[C@H](NC(=O)[C@H](CCC(=O)O)NC(=O)[C@H](CCCNC(=N)N)NC(=O)[C@H](CC(=O)O)NC(=O)[C@H](Cc1c[nH]c2ccccc12)NC(=O)[C@H](CCC(=O)O)NC(=O)[C@H](CCSC)NC(=O)[C@H](Cc1c[nH]c2ccccc12)NC(C)=O)C(=O)N[C@@H](CC(N)=O)C(=O)N[C@@H](CC(N)=O)C(=O)N[C@@H](Cc1ccc(O)cc1)C(=O)N[C@H](C(=O)N[C@@H](CO)C(=O)N[C@@H](CC(C)C)C(=O)N[C@H](C(=O)N[C@@H](Cc1cnc[nH]1)C(=O)N[C@@H](CO)C(=O)N[C@@H](CC(C)C)C(=O)N[C@@H](CCCCN)C(=O)N[C@@H](CCC(=O)O)C(=O)N[C@@H](CCC(=O)O)C(=O)N[C@@H](CO)C(=O)N[C@@H](CCC(N)=O)C(=O)N[C@@H](CC(N)=O)C(=O)N[C@@H](CCC(N)=O)C(=O)N[C@@H](CCC(N)=O)C(=O)N[C@@H](CCC(=O)O)C(=O)N[C@@H](CCCCN)C(=O)N[C@@H](CC(N)=O)C(=O)N[C@@H](CCC(=O)O)C(=O)N[C@@H](CCC(N)=O)C(=O)N[C@@H](CCC(=O)O)C(=O)N[C@@H](CC(C)C)C(=O)N[C@@H](CC(C)C)C(N)=O)[C@@H](C)CC)[C@@H](C)O	0.52 µM	0.92 µM	0.55 µM	0.094 µM
